In article PMC8450354, “Codon Optimization of Insect Odorant Receptor Genes May Increase Their Stable Expression for Functional Characterization in HEK293 Cells” (Frontiers in Cellular Neuroscience, 2021):

Assays:
Test in all cases: calcium fluorescence (Fluo-4AM) assay, inducible stable HEK293 cells
Format in all cases: cell-based
ItypOrco = biological target: T1, ItypOrco (Ips typographus, UniProt A0A7L8XYY7)
T1 construct: full-length, N-terminal Myc tag, codon-optimized gene, expressed without an OR

ItypOR49 = biological target: T2, ItypOR49 (Ips typographus, UniProt A0A7L8XYT4)
T2 construct: full-length, N-terminal V5 tag, codon-optimized gene; with ItypOrco
T2 sequence (A0A7L8XYT4 entry or part of it, one chain of several): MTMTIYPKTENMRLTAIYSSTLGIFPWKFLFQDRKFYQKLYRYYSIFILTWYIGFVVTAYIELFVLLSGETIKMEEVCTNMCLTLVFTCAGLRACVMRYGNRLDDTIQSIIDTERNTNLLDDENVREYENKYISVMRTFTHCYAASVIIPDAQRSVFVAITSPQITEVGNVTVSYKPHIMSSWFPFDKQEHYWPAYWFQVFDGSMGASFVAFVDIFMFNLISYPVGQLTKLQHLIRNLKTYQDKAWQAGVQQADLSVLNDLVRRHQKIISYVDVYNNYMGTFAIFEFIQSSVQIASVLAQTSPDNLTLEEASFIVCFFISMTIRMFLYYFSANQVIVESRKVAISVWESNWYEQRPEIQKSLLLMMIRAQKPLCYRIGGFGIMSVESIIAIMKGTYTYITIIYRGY

ItypOR25 = biological target: T3, ItypOR25 (Ips typographus, UniProt A0A8F3ERC7)
T3 construct: full-length, N-terminal V5 tag, codon-optimized gene; with ItypOrco
T3 sequence (A0A8F3ERC7 1-394): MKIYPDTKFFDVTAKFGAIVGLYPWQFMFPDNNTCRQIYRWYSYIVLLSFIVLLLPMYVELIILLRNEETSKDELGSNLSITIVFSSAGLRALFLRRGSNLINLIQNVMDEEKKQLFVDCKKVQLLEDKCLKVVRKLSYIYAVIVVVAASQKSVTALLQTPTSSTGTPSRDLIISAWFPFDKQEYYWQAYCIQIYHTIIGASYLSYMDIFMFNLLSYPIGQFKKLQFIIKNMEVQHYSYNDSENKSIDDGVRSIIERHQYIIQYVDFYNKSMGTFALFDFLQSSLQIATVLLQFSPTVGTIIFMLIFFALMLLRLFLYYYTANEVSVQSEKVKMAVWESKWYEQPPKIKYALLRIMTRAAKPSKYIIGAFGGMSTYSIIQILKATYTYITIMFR
T3 sequence (A0A7L8XYY7 1-480 partner): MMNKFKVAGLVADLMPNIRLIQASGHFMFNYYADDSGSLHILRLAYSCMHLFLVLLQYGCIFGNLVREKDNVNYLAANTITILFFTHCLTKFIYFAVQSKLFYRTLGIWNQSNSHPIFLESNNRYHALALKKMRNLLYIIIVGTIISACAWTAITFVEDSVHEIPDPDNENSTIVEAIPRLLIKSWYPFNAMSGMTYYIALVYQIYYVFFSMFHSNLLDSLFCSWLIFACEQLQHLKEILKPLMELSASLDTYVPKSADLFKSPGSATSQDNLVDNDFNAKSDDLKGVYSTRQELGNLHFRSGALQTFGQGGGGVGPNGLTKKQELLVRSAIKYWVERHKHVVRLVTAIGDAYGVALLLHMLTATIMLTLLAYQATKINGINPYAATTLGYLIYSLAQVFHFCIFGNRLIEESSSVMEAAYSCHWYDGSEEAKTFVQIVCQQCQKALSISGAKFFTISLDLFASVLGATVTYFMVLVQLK

SMILES: CCc1ccc(NC(=O)CSc2nnc(-c3cccnc3)n2CC)cc1 [VUAA1]
- EC50 (ItypOrco): 21.1 µM

SMILES: C=CC(=C)C[C@@H](O)C=C(C)C [(R)-(−)-ipsdienol]
- EC50 (ItypOR49): 7.1 µM

SMILES: CC1=CC[C@@H]2[C@H](C1)C2(C)C [(+)-3-carene]
- EC50 (ItypOR25): ~24.5 µM
